Target: T1, indoleamine 2, 3-dioxygenase (IDO1) (Homo sapiens, UniProt P14902)
T1 construct: human peripheral blood mononuclear cells (PBMC) (PB003F; host or cells: human PBMC stimulated with IFN-gamma and LPS
Assay: PBMC IDO1 assay (kynurenine detection via mass spectrometry)
Assay type: cell-based
Details: human PBMC stimulated with IFN-γ and LPS, 2 days, kynurenine by mass spectrometry; read-out: IDO1 PBMC pIC50 (converted)
Summary of the method: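 Human PBMCs (50,000/well) stimulated with IFN-γ 100 ng/ml and LPS 50 ng/ml were exposed to 11-point 3-fold compound dilutions for 2 days at 37 °C. Supernatant kynurenine was quantified by RapidFire MS relative to an internal standard; parallel CellTiter-Glo ATP luminescence measured cytotoxicity, with four-parameter curve fitting.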

T1 sequence (P14902 whole entry): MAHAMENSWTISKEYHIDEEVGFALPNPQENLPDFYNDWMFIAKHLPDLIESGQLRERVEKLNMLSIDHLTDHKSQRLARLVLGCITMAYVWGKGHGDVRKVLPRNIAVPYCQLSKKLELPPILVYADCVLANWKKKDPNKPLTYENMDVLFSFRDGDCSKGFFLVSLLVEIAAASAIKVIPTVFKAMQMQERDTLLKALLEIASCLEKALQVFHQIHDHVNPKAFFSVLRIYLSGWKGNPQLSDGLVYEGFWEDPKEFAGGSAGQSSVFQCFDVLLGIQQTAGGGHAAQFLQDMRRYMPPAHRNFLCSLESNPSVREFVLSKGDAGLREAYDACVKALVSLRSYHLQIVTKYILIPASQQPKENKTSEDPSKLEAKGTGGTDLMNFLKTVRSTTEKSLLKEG

SMILES | IC50
CC(C)c1ccc(C(=O)NC(CC2CCN(C(=O)OC(C)(C)C)CC2)c2ccccc2)cc1 (stereo not drawn) [Example 212, tert-butyl 4-(2-(4-isopropylbenzamido)-2-phenylethyl)piperidine-1-carboxylate] | 398 nM
Cc1cc(C(=O)NC(CC2CCN(C(=O)OC(C)(C)C)CC2)c2ccccc2)ccc1F (stereo not drawn) [Example 213, tert-butyl 4-(2-(4-fluoro-3-methylbenzamido)-2-phenylethyl)piperidine-1-carboxylate] | 398 nM
CC(C)(C)OC(=O)N1CCC(C[C@@H](NC(=O)c2ccc(Cl)s2)C2CC2)CC1 [Example 214, (R)-tert-butyl 4-(2-(5-chlorothiophene-2-carboxamido)-2-cyclopropylethyl)piperidine-1-carboxylate] | 398 nM
O=C(NC(CC1CCN(S(=O)(=O)c2ccccc2)CC1)c1ccccc1)c1ccc(Cl)cc1 (stereo not drawn) [Example 215, 4-chloro-N-(1-phenyl-2-(1-(phenylsulfonyl)piperidin-4-yl)ethyl)benzamide] | 398 nM
COc1cccc(C(=O)NC(CC2CCN(C(=O)OC(C)(C)C)CC2)c2ccccc2)c1 (stereo not drawn) [Example 216, tert-butyl 4-(2-(3-methoxybenzamido)-2-phenylethyl)piperidine-1-carboxylate] | 501 nM
Cc1ccc(C(=O)NC(CC2CCN(C(=O)OC(C)(C)C)CC2)c2ccccc2)cn1 (stereo not drawn) [Example 217, tert-butyl 4-(2-(6-methylnicotinamido)-2-phenylethyl)piperidine-1-carboxylate] | 501 nM
Cc1ccc(C(=O)NC(CC2CCN(C(=O)OC(C)(C)C)CC2)c2ccccc2)c(F)c1 (stereo not drawn) [Example 218, tert-butyl 4-(2-(2-fluoro-4-methylbenzamido)-2-phenylethyl)piperidine-1-carboxylate] | 501 nM
CC(C)(C)OC(=O)N1CCC(CC(NC(=O)c2ccccc2F)c2ccccc2)CC1 (stereo not drawn) [Example 219, tert-butyl 4-(2-(2-fluorobenzamido)-2-phenylethyl)piperidine-1-carboxylate] | 501 nM
CC(C)(C)OC(=O)N1CCC(CC(NC(=O)c2ccc[nH]2)c2ccccc2)CC1 (stereo not drawn) [Example 220, tert-butyl 4-(2-phenyl-2-(1H-pyrrole-2-carboxamido)ethyl)piperidine-1-carboxylate] | 501 nM
CC(C)(C)OC(=O)N1CCC(CC(NC(=O)c2ccc(F)cc2)c2nnc(C3CC3)o2)CC1 (stereo not drawn) [Example 221, tert-butyl 4-(2-(5-cyclopropyl-1,3,4-oxadiazol-2-yl)-2-(4-fluorobenzamido)ethyl)piperidine-1-carboxylate] | 501 nM
CC(=O)N1CCC(CC(NC(=O)c2ccc(Cl)cc2)c2ccccc2)CC1 (stereo not drawn) [Example 222, N-(2-(1-acetylpiperidin-4-yl)-1-phenylethyl)-4-chlorobenzamide] | 501 nM
CC(C)c1nnc(C(CC2CCN(C(=O)OC(C)(C)C)CC2)NC(=O)c2ccc(F)cc2)o1 (stereo not drawn) [Example 223, tert-butyl 4-(2-(4-fluorobenzamido)-2-(5-isopropyl-1,3,4-oxadiazol-2-yl)ethyl)piperidine-1-carboxylate] | 501 nM
CC(C)(C)OC(=O)N1CCC(CC(NC(=O)c2ccc(Cl)s2)c2n[nH]c(=O)o2)CC1 (stereo not drawn) [Example 224, tert-butyl 4-(2-(5-chlorothiophene-2-carboxamido)-2-(5-oxo-4,5-dihydro-1,3,4-oxadiazol-2-yl)ethyl)piperidine-1-carboxylate] | 501 nM
CC(C)CNCC(CC1CCN(C(=O)OC(C)(C)C)CC1)NC(=O)c1ccc(F)cc1 (stereo not drawn) [Example 225, tert-butyl 4-(2-(4-fluorobenzamido)-3-(isobutylamino)propyl)piperidine-1-carboxylate] | 501 nM
CC(C)(C)OC(=O)N1CCC(CC(NC(=O)c2ccc(F)cc2)c2ccccn2)CC1 (stereo not drawn) [Example 226, tert-butyl 4-(2-(4-fluorobenzamido)-2-(pyridin-2-yl)ethyl)piperidine-1-carboxylate] | 631 nM
CC(C)Cc1ccc(C(=O)NC(CC2CCN(C(=O)OC(C)(C)C)CC2)c2ccccc2)s1 (stereo not drawn) [Example 227, tert-butyl 4-(2-(5-isobutylthiophene-2-carboxamido)-2-phenylethyl)piperidine-1-carboxylate] | 631 nM
CC(C)(C)OC(=O)N1CCC(CC(NC(=O)c2ccco2)c2ccccc2)CC1 (stereo not drawn) [Example 228, tert-butyl 4-(2-(furan-2-carboxamido)-2-phenylethyl)piperidine-1-carboxylate] | 631 nM
CC(C)(C)OC(=O)N1CCC(C[C@H](Nc2ccnc(Cl)n2)C2CC2)CC1 [Example 229, (S)-tert-butyl 4-(2-((2-chloropyrimidin-4-yl)amino)-2-cyclopropylethyl)piperidine-1-carboxylate] | 631 nM
O=C(NC(CC1CCN(C(=O)N2CCCCC2)CC1)c1ccccc1)c1ccc(Cl)cc1 (stereo not drawn) [Example 230, 4-chloro-N-(1-phenyl-2-(1-(piperidine-1-carbonyl)piperidin-4-yl)ethyl)benzamide] | 631 nM
CCNCC[C@H](CC1CCN(C(=O)OC(C)(C)C)CC1)NC(=O)c1ccc(Cl)s1 [Example 231, (S)-tert-butyl 4-(2-(5-chlorothiophene-2-carboxamido)-4-(ethylamino)butyl)piperidine-1-carboxylate] | 631 nM
CC(C)(C)OC(=O)N1CCC(CC(NC(=O)C2CCCC2)c2ccccc2)CC1 (stereo not drawn) [Example 232, tert-butyl 4-(2-(cyclopentanecarboxamido)-2-phenylethyl)piperidine-1-carboxylate] | 794 nM
CC1CCC(C(=O)NC(CC2CCN(C(=O)OC(C)(C)C)CC2)c2ccccc2)CC1 (stereo not drawn) [Example 233, tert-butyl 4-(2-(4-methylcyclohexanecarboxamido)-2-phenylethyl)piperidine-1-carboxylate] | 794 nM
CC(C)(C)OC(=O)N1CCC(C[C@@H](NC(=O)c2ccc(Cl)cc2)c2ccccc2)CC1 [Example 234, (R)-tert-butyl 4-(2-(4-chlorobenzamido)-2-phenylethyl)piperidine-1-carboxylate] | 794 nM
COCCNCC(CC1CCN(C(=O)OC(C)(C)C)CC1)NC(=O)c1ccc(F)cc1 (stereo not drawn) [Example 235, tert-butyl 4-(2-(4-fluorobenzamido)-3-((2-methoxyethyl)amino)propyl)piperidine-1-carboxylate] | 794 nM

Source: patent US20210078988A1, “MODULATORS OF INDOLEAMINE 2,3-DIOXYGENASE” (GLAXOSMITHKLINE INTELLECTUAL PROPERTY DEVELOPMENT LIMITED, priority 2017, published 2021)
